Converted amounts (≈) assume the structure as drawn.
Assays:
Type in all cases: cell-based
[1] = tested on: Staphylococcus pyog. aureus; assay: antibacterial spectrum in vitro (Table I), MIC
From the text: (§1) The above Table I illustrates antibacterial spectrum in vitro, using some pathogene microorganisms freshly isolated from patients.

Pseudomonas aeruginosa = assay: antibacterial spectrum in vitro (Table I), MIC
From the text: as §1

Diplococcus pneumoniae = assay: antibacterial spectrum in vitro (Table I), MIC
From the text: as §1

Proteus mirabilis = assay: antibacterial spectrum in vitro (Table I), MIC
E. coli = assay: antibacterial spectrum in vitro (Table I), MIC
Klebsiella aerogenes = assay: antibacterial spectrum in vitro (Table I), MIC
From the text: as §1

[2] = tested on: Streptococcus haemolyticus; assay: antibacterial spectrum in vitro (Table I), MIC
From the text: as §1

Enterococcus = assay: antibacterial spectrum in vitro (Table I), MIC
From the text: as §1

Enterococcus 325 = assay: testing against a set of organisms (Table II), MIC; conditions: Enterococcus 325, Table II
[3] = tested on: Staphylococcus aureus 372; assay: testing against a set of organisms (Table II), MIC; conditions: Staphylococcus aureus 372, Table II
[4] = tested on: Streptococcus haemolyticus 69; assay: testing against a set of organisms (Table II), MIC; conditions: Streptococcus haemolyticus 69, Table II
[5] = tested on: Streptococcus haemolyticus 099; assay: testing against a set of organisms (Table II), MIC; conditions: Streptococcus haemolyticus 099, Table II
Enterococcus 45 = assay: testing against a set of organisms (Table II), MIC; conditions: Enterococcus 45, Table II
Enterococcus 242 = assay: testing against a set of organisms (Table II), MIC; conditions: Enterococcus 242, Table II
[6] = tested on: Staphylococcus aureus 736; assay: testing against a set of organisms (Table II), MIC; conditions: Staphylococcus aureus 736, Table II
Enterococcus 146 = assay: testing against a set of organisms (Table II), MIC; conditions: Enterococcus 146, Table II

| Compound | MIC [1] | MIC (Pseudomonas aeruginosa) | MIC (Diplococcus pneumoniae) | MIC (Proteus mirabilis) | MIC (E. coli) | MIC (Klebsiella aerogenes) | MIC [2] | MIC (Enterococcus) | MIC (Enterococcus 325) | MIC [3] | MIC [4] | MIC [5] | MIC (Enterococcus 45) | MIC (Enterococcus 242) | MIC [6] | MIC (Enterococcus 146) |
| --- | --- | --- | --- | --- | --- | --- | --- | --- | --- | --- | --- | --- | --- | --- | --- | --- |
| CC[C@H]1OC(=O)[C@H](C)[C@@H](O[C@H]2C[C@@](C)(OC)[C@@H](O)[C@H](C)O2)[C@H](C)[C@@H](O[C@@H]2O[C@H](C)C[C@H](N(C)C)[C@H]2O)[C@](C)(O)C[C@@H](C)C(=O)[C@H](C)[C@@H](O)[C@]1(C)O [E, erythromycin, reference compound] | 62.5 µg/mL (≈ 85.2 µM) | 500 µg/mL (≈ 681 µM) | 62.5 µg/mL (≈ 85.2 µM) | 500 µg/mL (≈ 681 µM) | 250 µg/mL (≈ 341 µM) | 500 µg/mL (≈ 681 µM) | 31.2 µg/mL (≈ 42.5 µM) | 31.2 µg/mL (≈ 42.5 µM) | – | – | – | – | – | – | – | – |
| CCC1OC(=O)C(C)C(OC2CC(C)(OC)C(O)C(C)O2)C(C)C(OC2OC(C)CC(N(C)C)C2O)C(C)(O)CC(C)C(NS(=O)(=O)c2ccc(NC(C)=O)cc2)C(C)C(O)C1(C)O (stereo not drawn) [EAAc, N-(4-acetylamino-benzenesulfonyl)erythromycylamine] | 15.6 µg/mL (≈ 16.7 µM) | 250.0 µg/mL (≈ 268 µM) | 1.9 µg/mL (≈ 2.04 µM) | 125 µg/mL (≈ 134 µM) | – | 62.5 µg/mL (≈ 67 µM) | 0.45 µg/mL (≈ 0.483 µM) | 1.9 µg/mL (≈ 2.04 µM) | 62.5 µg/mL (≈ 67 µM) | 15.6 µg/mL (≈ 16.7 µM) | 0.9 µg/mL (≈ 0.965 µM) | 1.9 µg/mL (≈ 2.04 µM) | 125.0 µg/mL (≈ 134 µM) | 62.5 µg/mL (≈ 67 µM) | 31.2 µg/mL (≈ 33.5 µM) | 31.2 µg/mL (≈ 33.5 µM) |
| CCC1OC(=O)C(C)C(OC2CC(C)(OC)C(O)C(C)O2)C(C)C(OC2OC(C)CC(N(C)C)C2O)C(C)(O)CC(C)C(NS(=O)(=O)c2ccc(Br)cc2)C(C)C(O)C1(C)O (stereo not drawn) [EABr, N-(4-bromo-benzenesulfonyl)erythromycylamine] | 31.2 µg/mL (≈ 32.7 µM) | 250.0 µg/mL (≈ 262 µM) | 3.9 µg/mL (≈ 4.09 µM) | 250 µg/mL (≈ 262 µM) | 125.0 µg/mL (≈ 131 µM) | 62.5 µg/mL (≈ 65.5 µM) | 0.9 µg/mL (≈ 0.943 µM) | 1.9 µg/mL (≈ 1.99 µM) | 3.9 µg/mL (≈ 4.09 µM) | 3.9 µg/mL (≈ 4.09 µM) | 0.9 µg/mL (≈ 0.943 µM) | 0.9 µg/mL (≈ 0.943 µM) | 7.8 µg/mL (≈ 8.18 µM) | 3.9 µg/mL (≈ 4.09 µM) | 7.8 µg/mL (≈ 8.18 µM) | 3.9 µg/mL (≈ 4.09 µM) |
| CCC1OC(=O)C(C)C(OC2CC(C)(OC)C(O)C(C)O2)C(C)C(OC2OC(C)CC(N(C)C)C2O)C(C)(O)CC(C)C(NS(=O)(=O)c2ccc(Cl)cc2)C(C)C(O)C1(C)O (stereo not drawn) [EACl, N-(4-chloro-benzenesulfonyl)erythromycylamine] | 31.2 µg/mL (≈ 34.3 µM) | 250.0 µg/mL (≈ 275 µM) | 1.9 µg/mL (≈ 2.09 µM) | 250 µg/mL (≈ 275 µM) | 62.5 µg/mL (≈ 68.7 µM) | 125 µg/mL (≈ 137 µM) | 0.9 µg/mL (≈ 0.989 µM) | 3.9 µg/mL (≈ 4.29 µM) | 7.8 µg/mL (≈ 8.58 µM) | 3.9 µg/mL (≈ 4.29 µM) | 0.9 µg/mL (≈ 0.989 µM) | 0.9 µg/mL (≈ 0.989 µM) | 3.9 µg/mL (≈ 4.29 µM) | 3.9 µg/mL (≈ 4.29 µM) | 31.2 µg/mL (≈ 34.3 µM) | 7.8 µg/mL (≈ 8.58 µM) |
| CCc1ccc(S(=O)(=O)NC2C(C)CC(C)(O)C(OC3OC(C)CC(N(C)C)C3O)C(C)C(OC3CC(C)(OC)C(O)C(C)O3)C(C)C(=O)OC(CC)C(C)(O)C(O)C2C)cc1 (stereo not drawn) [EAE, N-(4-ethyl-benzenesulfonyl)erythromycylamine] | – | – | – | – | – | – | – | – | 3.9 µg/mL (≈ 4.32 µM) | 7.8 µg/mL (≈ 8.64 µM) | 0.9 µg/mL (≈ 0.996 µM) | 0.9 µg/mL (≈ 0.996 µM) | 7.8 µg/mL (≈ 8.64 µM) | 3.9 µg/mL (≈ 4.32 µM) | 31.2 µg/mL (≈ 34.5 µM) | 7.8 µg/mL (≈ 8.64 µM) |
| CCC1OC(=O)C(C)C(OC2CC(C)(OC)C(O)C(C)O2)C(C)C(OC2OC(C)CC(N(C)C)C2O)C(C)(O)CC(C)C(NS(=O)(=O)c2ccc(F)cc2)C(C)C(O)C1(C)O (stereo not drawn) [EAF, N-(4-fluoro-benzenesulfonyl)erythromycylamine] | – | – | – | – | – | – | – | – | 7.8 µg/mL (≈ 8.73 µM) | 15.6 µg/mL (≈ 17.5 µM) | 3.9 µg/mL (≈ 4.37 µM) | < 0.9 µg/mL | 7.8 µg/mL (≈ 8.73 µM) | 3.9 µg/mL (≈ 4.37 µM) | 31.2 µg/mL (≈ 34.9 µM) | 7.8 µg/mL (≈ 8.73 µM) |
| CCC1OC(=O)C(C)C(OC2CC(C)(OC)C(O)C(C)O2)C(C)C(OC2OC(C)CC(N(C)C)C2O)C(C)(O)CC(C)C(NS(=O)(=O)c2ccc(I)cc2)C(C)C(O)C1(C)O (stereo not drawn) [EAI, N-(4-iodo-benzenesulfonyl)erythromycylamine] | – | – | – | – | – | – | – | – | 3.9 µg/mL (≈ 3.9 µM) | 3.9 µg/mL (≈ 3.9 µM) | 0.9 µg/mL (≈ 0.899 µM) | 0.9 µg/mL (≈ 0.899 µM) | 7.8 µg/mL (≈ 7.79 µM) | 7.8 µg/mL (≈ 7.79 µM) | 15.6 µg/mL (≈ 15.6 µM) | 3.9 µg/mL (≈ 3.9 µM) |
| CCC(=O)Nc1ccc(S(=O)(=O)NC2C(C)CC(C)(O)C(OC3OC(C)CC(N(C)C)C3O)C(C)C(OC3CC(C)(OC)C(O)C(C)O3)C(C)C(=O)OC(CC)C(C)(O)C(O)C2C)cc1 (stereo not drawn) [EAPr, N-(4-propionylamino-benzenesulfonyl)erythromycylamine] | – | – | – | – | – | – | – | – | 62.5 µg/mL (≈ 66.1 µM) | 15.6 µg/mL (≈ 16.5 µM) | 0.9 µg/mL (≈ 0.951 µM) | 0.9 µg/mL (≈ 0.951 µM) | 62.5 µg/mL (≈ 66.1 µM) | 31.2 µg/mL (≈ 33 µM) | 15.6 µg/mL (≈ 16.5 µM) | 7.8 µg/mL (≈ 8.24 µM) |
| CCC1OC(=O)C(C)C(OC2CC(C)(OC)C(O)C(C)O2)C(C)C(OC2OC(C)CC(N(C)C)C2O)C(C)(O)CC(C)C(NS(=O)(=O)c2ccc(C)cc2)C(C)C(O)C1(C)O (stereo not drawn) [EAT, N-(4-methyl-benzenesulfonyl)erythromycylamine] | 31.2 µg/mL (≈ 35.1 µM) | 250.0 µg/mL (≈ 281 µM) | 1.9 µg/mL (≈ 2.14 µM) | 250 µg/mL (≈ 281 µM) | 62.2 µg/mL (≈ 70 µM) | 250 µg/mL (≈ 281 µM) | 0.9 µg/mL (≈ 1.01 µM) | 3.9 µg/mL (≈ 4.39 µM) | 7.8 µg/mL (≈ 8.77 µM) | 7.8 µg/mL (≈ 8.77 µM) | 0.9 µg/mL (≈ 1.01 µM) | 0.9 µg/mL (≈ 1.01 µM) | 7.8 µg/mL (≈ 8.77 µM) | 3.9 µg/mL (≈ 4.39 µM) | 15.6 µg/mL (≈ 17.5 µM) | 7.8 µg/mL (≈ 8.77 µM) |
| CCC1OC(=O)C(C)C(OC2CC(C)(OC)C(O)C(C)O2)C(C)C(OC2OC(C)CC(N(C)C)C2O)C(C)(O)CC(C)C(NS(=O)(=O)c2ccccc2C)C(C)C(O)C1(C)O (stereo not drawn) [o-EAT, N-(2-methyl-benzenesulfonyl)erythromycylamine] | – | – | – | – | – | – | – | – | 7.8 µg/mL (≈ 8.77 µM) | 15.6 µg/mL (≈ 17.5 µM) | 0.9 µg/mL (≈ 1.01 µM) | 1.9 µg/mL (≈ 2.14 µM) | 7.8 µg/mL (≈ 8.77 µM) | 3.9 µg/mL (≈ 4.39 µM) | 31.2 µg/mL (≈ 35.1 µM) | 15.6 µg/mL (≈ 17.5 µM) |

From patent US3983103A, “N-(Benzenesulfonyl)-erythromycylamine derivatives” (PLIVA Pharmaceutical and Chemical Works, priority 1973, dated 1976)
